This is an account of results in patent US12213970B2, “Pyridinyl sulfonamide derivatives, pharmaceutical compositions and uses thereof” (Boehringer Ingelheim International GmbH, priority 2018, dated 2025).

One assay concerns the target T1, MAO-A (Homo sapiens, UniProt P21397).
T1 construct: purchased Sigma-Aldrich M7316
T1 sequence (P21397 1-527): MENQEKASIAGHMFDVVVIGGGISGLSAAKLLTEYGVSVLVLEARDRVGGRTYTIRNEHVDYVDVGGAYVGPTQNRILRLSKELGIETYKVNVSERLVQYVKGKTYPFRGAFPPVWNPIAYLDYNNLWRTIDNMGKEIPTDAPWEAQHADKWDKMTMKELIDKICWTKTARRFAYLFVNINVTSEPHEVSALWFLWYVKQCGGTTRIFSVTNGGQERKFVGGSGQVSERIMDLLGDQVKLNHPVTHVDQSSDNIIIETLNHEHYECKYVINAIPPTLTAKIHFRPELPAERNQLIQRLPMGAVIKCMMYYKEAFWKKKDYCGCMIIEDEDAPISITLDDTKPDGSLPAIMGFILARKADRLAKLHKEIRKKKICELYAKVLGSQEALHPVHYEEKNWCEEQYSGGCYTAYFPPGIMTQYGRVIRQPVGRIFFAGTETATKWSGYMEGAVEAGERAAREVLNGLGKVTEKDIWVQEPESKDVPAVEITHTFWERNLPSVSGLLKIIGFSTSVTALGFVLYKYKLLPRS
The assay can be described thus: MAO-A biochemical assay (MAO-Glo). As to conditions: IC50; read-out: MAO-A. From the text: (§1) The MAO-Glo™ Assay (commercially available from PROMEGA, #V1402) provides a sensitive method for the measurement of monoamine oxidase (MAO) activity (Valley, M. P. et al., 2006, Anal. Biochem. 359: 238-246) from a variety of tissues, biofluids or recombinant expressed or purified enzymes. As substrate a derivate of the beetle luciferin ((4S)-4,5-dihydro-2-(6-hydroxybenzothiazolyl)-4-thiazole-carboxylic acid) is used, which is oxidized at a primary amine moiety. After a spontaneous elimination and a catalyzed esterase reaction, the turnover of luciferin by the luciferase is recorded as a signal of MAO-A activity.
An aliquot of 3 μL of the compound dilution is added to a 384 well plate (Optiplate, PS, flat bottom F, black, PERKIN ELMER, #6007270) in a DMSO concentration of 1.025%.
A MAO-A enzyme aliquot (M7316, Sigma-Aldrich) is thawed on ice, diluted in reaction buffer to 1.25 mU/μL and added in a volume of 5 μL to the wells. After incubation for 20 minutes at 37° C., 2 μL of MAO substrate (dissolved in DMSO at 16 mM, diluted to 20 μM in assay buffer to obtain a final assay concentration of 4 μM) is added, mixed, and the mixture further incubated for 60 minutes at 37° C.
The turnover of the substrate is determined by the addition of 10 μL of the Detection Reagent mix which was generated by the addition of reconstitution buffer with esterase (PROMEGA, #V1402) to the luciferin detection reagent (PROMEGA, #V1402). After an incubation period of 20 minutes at 37° C., the luminescent signal is measured with a […], e.g. Envision 2104 Multilabel Reader (PERKIN ELMER).

Assay [1] addresses T2, human AOC3 enzyme (recombinant CHO cells) (Homo sapiens, UniProt Q16853).
T2 construct: expressed in transfected cells; host or cells: CHO cells
T2 sequence (Q16853 1-763): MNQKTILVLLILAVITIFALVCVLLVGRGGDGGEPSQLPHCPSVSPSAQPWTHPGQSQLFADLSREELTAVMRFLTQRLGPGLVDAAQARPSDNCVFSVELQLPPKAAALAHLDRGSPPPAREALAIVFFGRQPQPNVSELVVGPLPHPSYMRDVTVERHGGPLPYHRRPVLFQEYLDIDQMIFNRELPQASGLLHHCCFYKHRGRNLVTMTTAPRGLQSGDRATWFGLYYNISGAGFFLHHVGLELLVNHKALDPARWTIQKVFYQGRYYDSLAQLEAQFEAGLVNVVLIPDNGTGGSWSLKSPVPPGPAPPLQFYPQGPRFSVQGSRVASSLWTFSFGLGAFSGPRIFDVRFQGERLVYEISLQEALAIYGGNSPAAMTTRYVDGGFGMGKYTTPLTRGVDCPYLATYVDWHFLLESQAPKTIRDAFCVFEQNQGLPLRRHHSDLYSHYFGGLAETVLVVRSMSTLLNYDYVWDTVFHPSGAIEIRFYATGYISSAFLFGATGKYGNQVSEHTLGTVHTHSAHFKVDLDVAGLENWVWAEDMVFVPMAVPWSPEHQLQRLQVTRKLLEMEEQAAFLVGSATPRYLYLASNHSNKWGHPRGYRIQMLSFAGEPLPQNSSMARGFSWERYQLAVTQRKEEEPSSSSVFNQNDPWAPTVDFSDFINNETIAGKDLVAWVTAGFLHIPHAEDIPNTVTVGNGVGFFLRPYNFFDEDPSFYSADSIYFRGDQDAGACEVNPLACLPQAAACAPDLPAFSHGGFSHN
The assay can be described thus: AOC3 biochemical assay (MAO-Glo), human enzyme. As to conditions: read-out: AOC3 IC50.
Text: as §1, with “AOC3” for “MAO-A”
An aliquot of 3 μL of the compound dilution is added to a 384 well plate (Optiplate, PS, flat bottom, white, PERKIN ELMER, #6007290) with a final DMSO concentration of 6.6%. Recombinant CHO cells, overexpressing the human (1500 cells/well), mouse (1000 cells/well) or rat (500 cells/well) AOC3 enzyme are diluted in reaction buffer and added in a volume of 15 μL to the wells. After incubation for 20 minutes at 37° C., 2 μL of MAO substrate (dissolved in DMSO at 16 mM, adjusted to assay concentration in reaction buffer to a final assay concentration of 20 μM) is added and further incubated for 60 minutes at 37° C. The turnover of the substrate is determined by the addition of 20 μL of the detection-mix which was generated by the addition of reconstitution buffer with esterase (PROMEGA, #V1402) to the luciferin detection reagent (PROMEGA, #V1402). After an incubation period of 20 minutes, the luminescent signal is measured with Envision 2104 Multilabel Reader (PERKIN ELMER).

Bounds are passed on as bounds.

As for `CNC(=O)[C@@H]1CCCN1S(=O)(=O)c1ccc(OC/C(=C\F)CN)nc1` [Example 8], the IC50 at MAO-A was more than 50000 nM; in assay [1], 48 nM.
